The record followed here is patent US12202835B2, “Substituted aromatic ring-linked dioxinoquinazolines and dioxinoquinolines as kinase inhibitors” (BEIJING SCITECH-MQ PHARMACEUTICALS LIMITED, priority 2018, dated 2025).

Some results are limits rather than exact numbers.

One assay has as its system Ba/F3 LMNA-NTRK1 cells. As to the kind of experiment: Assay for inhibiting the proliferation of Ba/F3 LMNA-NTRK1 cells (CCK-8). It counts as cell-based. The conditions noted are these: Mus musculus, BaF3. The essentials:
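Viability was read as absorbance at 450 nm following 1–2 h CCK-8 incubation at 37 °C, relative to control and blank wells.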

The next assay deals with MER kinase (Homo sapiens (Human), UniProt Q12866). Description: Assay of small molecular compounds for inhibiting the activity of MER kinase (LANCE TR-FRET). It counts as biochemical. The essentials:
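LANCE TR-FRET readout of ULight-poly GT phosphorylation by MER kinase; compound final range 0.042-2500 nM, 3-fold steps, 5 min enzyme preincubation. Reaction 60 min at room temperature in the dark with substrate/ATP (4× at 200 nM/20 μM), 1% DMSO, then stopped and developed 60 min; IC50 by curve fit.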
(In general: Time-resolved FRET reads energy transfer from a long-lived donor to a nearby acceptor.)

The target of the next assay is c-MET kinase (Homo sapiens (Human), UniProt P08581). As to the kind of experiment: Assay of small molecular compounds for inhibiting the activity of c-MET kinase (LANCE TR-FRET). Type of assay: biochemical. To be noted: read-out: CMET IC50. The essentials: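 Eleven final concentrations from 2500 nM down to 0.042 nM, in 4% DMSO, were tested against human c-MET (2× stock 2 nM), with compound and enzyme premixed for 5 min. The phosphorylation reaction used 4× stock of 400 nM ULight-JAK-1 peptide and 40 μM ATP for 60 min at room temperature, then stop and detection steps. TR-FRET percent inhibition against positive and negative controls gave the IC50.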
Chain of c-MET kinase (P08581 25-1390): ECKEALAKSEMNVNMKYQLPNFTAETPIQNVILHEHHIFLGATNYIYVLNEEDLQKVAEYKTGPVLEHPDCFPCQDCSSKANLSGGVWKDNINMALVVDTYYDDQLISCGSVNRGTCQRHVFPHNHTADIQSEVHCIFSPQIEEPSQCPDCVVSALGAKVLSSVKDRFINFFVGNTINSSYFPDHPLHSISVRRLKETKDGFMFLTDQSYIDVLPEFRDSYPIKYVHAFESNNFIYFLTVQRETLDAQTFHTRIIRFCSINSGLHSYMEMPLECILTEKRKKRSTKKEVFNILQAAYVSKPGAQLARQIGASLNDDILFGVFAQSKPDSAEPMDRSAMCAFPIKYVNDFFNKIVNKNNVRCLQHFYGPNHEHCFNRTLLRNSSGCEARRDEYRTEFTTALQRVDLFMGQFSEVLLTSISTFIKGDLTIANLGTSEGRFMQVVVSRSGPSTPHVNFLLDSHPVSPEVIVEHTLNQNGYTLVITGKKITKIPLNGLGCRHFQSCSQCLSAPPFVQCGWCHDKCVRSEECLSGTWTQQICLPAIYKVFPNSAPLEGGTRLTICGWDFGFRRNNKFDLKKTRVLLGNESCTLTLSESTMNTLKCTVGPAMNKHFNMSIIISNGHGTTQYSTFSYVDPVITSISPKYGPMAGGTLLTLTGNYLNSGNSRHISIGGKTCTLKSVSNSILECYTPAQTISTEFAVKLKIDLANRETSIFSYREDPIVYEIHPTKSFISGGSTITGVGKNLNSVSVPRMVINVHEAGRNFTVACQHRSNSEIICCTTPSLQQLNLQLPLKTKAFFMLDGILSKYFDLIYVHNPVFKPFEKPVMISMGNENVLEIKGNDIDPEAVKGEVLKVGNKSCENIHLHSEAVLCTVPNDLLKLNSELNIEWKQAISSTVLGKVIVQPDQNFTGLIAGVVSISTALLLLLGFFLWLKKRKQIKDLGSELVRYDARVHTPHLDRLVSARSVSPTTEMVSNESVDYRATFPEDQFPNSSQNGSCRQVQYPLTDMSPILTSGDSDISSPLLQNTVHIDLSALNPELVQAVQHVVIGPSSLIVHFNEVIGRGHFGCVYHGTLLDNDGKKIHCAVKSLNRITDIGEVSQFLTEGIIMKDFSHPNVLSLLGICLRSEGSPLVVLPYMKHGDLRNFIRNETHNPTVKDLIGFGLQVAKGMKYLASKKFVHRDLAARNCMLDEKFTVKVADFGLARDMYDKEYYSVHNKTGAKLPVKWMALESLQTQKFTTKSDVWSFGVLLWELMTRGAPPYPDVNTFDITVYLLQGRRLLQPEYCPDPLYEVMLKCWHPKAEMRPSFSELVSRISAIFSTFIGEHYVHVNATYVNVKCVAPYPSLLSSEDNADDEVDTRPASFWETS

Chain of MER kinase (Q12866 21-999): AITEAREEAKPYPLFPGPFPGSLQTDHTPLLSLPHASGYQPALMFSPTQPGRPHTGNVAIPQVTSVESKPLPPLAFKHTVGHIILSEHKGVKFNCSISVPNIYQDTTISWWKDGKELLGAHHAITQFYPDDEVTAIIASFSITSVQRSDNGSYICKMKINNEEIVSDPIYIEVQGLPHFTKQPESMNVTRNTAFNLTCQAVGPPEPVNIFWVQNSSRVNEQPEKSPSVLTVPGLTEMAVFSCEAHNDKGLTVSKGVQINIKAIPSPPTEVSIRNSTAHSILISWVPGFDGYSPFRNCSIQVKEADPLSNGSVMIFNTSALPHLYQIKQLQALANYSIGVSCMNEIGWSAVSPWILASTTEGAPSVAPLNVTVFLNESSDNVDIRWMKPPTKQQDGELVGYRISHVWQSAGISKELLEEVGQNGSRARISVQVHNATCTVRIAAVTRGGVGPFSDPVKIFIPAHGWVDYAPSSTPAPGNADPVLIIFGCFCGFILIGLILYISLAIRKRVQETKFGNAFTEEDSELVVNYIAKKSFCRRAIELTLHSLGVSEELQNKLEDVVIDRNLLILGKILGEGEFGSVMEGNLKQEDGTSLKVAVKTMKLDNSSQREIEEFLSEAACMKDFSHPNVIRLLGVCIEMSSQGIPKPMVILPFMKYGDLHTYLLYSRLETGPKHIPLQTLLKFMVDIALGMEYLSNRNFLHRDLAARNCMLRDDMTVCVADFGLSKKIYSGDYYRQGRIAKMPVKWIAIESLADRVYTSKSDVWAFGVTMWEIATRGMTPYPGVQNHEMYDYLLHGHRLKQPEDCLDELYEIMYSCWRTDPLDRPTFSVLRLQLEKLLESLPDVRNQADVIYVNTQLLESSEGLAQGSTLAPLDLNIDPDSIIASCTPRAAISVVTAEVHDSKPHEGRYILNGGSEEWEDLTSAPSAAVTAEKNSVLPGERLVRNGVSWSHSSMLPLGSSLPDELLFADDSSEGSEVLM

Take `COc1ccn(-c2ccc(F)cc2)c(=O)c1C(=O)Nc1ccc(Oc2ccnc3cc(OCC(C)(C)O)c4c(c23)OCCO4)cc1Cl` [Example 140, N-(2-chloro-4-((5-(2-hydroxy-2-methylpropoxy)-2,3-dihydro-[1,4]dioxino[2,3-f]quinolin-10-yl)oxy)phenyl)-1-(4-fluorophenyl)-4-methoxy-2-oxo-1,2-dihydropyridine-3-carboxamide]: the IC50 – broadly, the concentration at which inhibition is half-maximal – is less than 50 nM in the assay with Ba/F3 LMNA-NTRK1 cells, not above 50 nM against MER kinase and not above 50 nM at c-MET kinase.

As to `CCn1cc(C(=O)Nc2ccc(Oc3ccnc4cc(OCCCN5CCCCC5)c5c(c34)OCCO5)c(F)c2)c(=O)n(-c2ccc(F)cc2)c1=O` [Example 41, N-(3-fluoro-4-((5-(3-(piperidin-1-yl)propoxy)-2,3-dihydro-[1,4]dioxino[2,3-f]quinolin-10-yl)oxy)phenyl)-3-(4-fluorophenyl)-1-ethyl-2,4-dioxo-1,2,3,4-tetrahydropyrimidine-5-carboxamide], the IC50 is less than 50 nM with Ba/F3 LMNA-NTRK1 cells, not above 50 nM against MER kinase and not above 50 nM at c-MET kinase.

Take `CCn1cc(C(=O)Nc2ccc(Oc3ccnc4cc(OC)c5c(c34)OCCO5)c(F)c2)c(=O)n(-c2ccc(F)cc2)c1=O` [Example 37, N-(3-fluoro-4-((5-methoxy-2,3-dihydro-[1,4]dioxino[2,3-f]quinolin-10-yl)oxy)phenyl)-3-(4-fluorophenyl)-1-ethyl-2,4-dioxo-1,2,3,4-tetrahydropyrimidine-5-carboxamide]: the IC50 in the assay on Ba/F3 LMNA-NTRK1 cells is less than 50 nM; against MER kinase, not above 50 nM; at c-MET kinase, not above 50 nM.

For `Cn1cc(C(=O)Nc2ccc(Oc3ccnc4cc(OCCCN5CCCCC5)c5c(c34)OCCO5)c(F)c2)c(=O)n(-c2ccc(F)cc2)c1=O` [Example 39, N-(3-fluoro-4-((5-(3-(piperidin-1-yl)propoxy)-2,3-dihydro-[1,4]dioxino[2,3-f]quinolin-10-yl)oxy)phenyl)-3-(4-fluorophenyl)-1-methyl-2,4-dioxo-1,2,3,4-tetrahydropyrimidine-5-carboxamide], the IC50 was less than 50 nM in the assay with Ba/F3 LMNA-NTRK1 cells, not above 50 nM at MER kinase and not above 50 nM at c-MET kinase.

With `CCOc1ccn(-c2ccc(F)cc2)c(=O)c1C(=O)Nc1ccc(Oc2ccnc3cc(OCCCC#N)c4c(c23)OCCO4)cc1Cl` [Example 134, N-(2-chloro-4-((5-(3-cyanopropoxy)-2,3-dihydro-[1,4]dioxino[2,3-f]quinolin-10-yl)oxy)phenyl)-1-(4-fluorophenyl)-4-ethoxy-2-oxo-1,2-dihydropyridine-3-carboxamide], the IC50 in the assay with Ba/F3 LMNA-NTRK1 cells is less than 50 nM; against MER kinase it was not above 50 nM; on c-MET kinase, not above 50 nM.

Turning to `COCCOc1cc2nccc(Oc3ccc(NC(=O)c4cn(C)c(=O)n(-c5ccc(F)cc5)c4=O)cc3F)c2c2c1OCCO2` [Example 42, N-(3-fluoro-4-((5-(2-methoxyethoxy)-2,3-dihydro-[1,4]dioxino[2,3-f]quinolin-10-yl)oxy)phenyl)-3-(4-fluorophenyl)-1-methyl-2,4-dioxo-1,2,3,4-tetrahydropyrimidine-5-carboxamide], the IC50 in the assay on Ba/F3 LMNA-NTRK1 cells is less than 50 nM; against MER kinase it was not above 50 nM; on c-MET kinase, not above 50 nM.
